≈ marks a conversion by molar mass, not a printed value. Calls of active or inactive are those of the source. The rule behind the calls is not given here.
Tested on: Moraxella catarrhalis
Assay: Antimicrobial activity against Moraxella catarrhalis FH6810 after 18 hrs by micro broth dilution assay
Assay type: functional

Row | Structure (SMILES) | MIC [µg/mL] | Activity
1 | CCCCCCC[C@H](O)CC(=O)N[C@H](CC(C)C)C(=O)N[C@H](CC(=O)O)C(=O)N[C@H]1C(=O)N[C@H](CC(C)C)C(=O)N[C@H](CC(C)C)C(=O)N[C@H](CO)C(=O)N[C@@H](CC(C)C)C(=O)N[C@H](CCC(N)=O)C(=O)N[C@@H](CC(C)C)C(=O)N[C@@H]([C@@H](C)CC)C(=O)N[C@@H](CCC(=O)O)C(=O)O[C@@H]1C | 32 (≈ 22.7 µM) | 
2 | CCCCCCC[C@H](O)CC(=O)N[C@H](CC(C)C)C(=O)N[C@H](CC(=O)O)C(=O)N[C@H]1C(=O)N[C@H](CC(C)C)C(=O)N[C@H](CC(C)C)C(=O)N[C@H](CO)C(=O)N[C@@H](CC(C)C)C(=O)N[C@H](CCC(N)=O)C(=O)N[C@@H](CC(C)C)C(=O)N[C@@H](CC(C)C)C(=O)N[C@@H](CCC(=O)O)C(=O)O[C@@H]1C | > 128 | 
3 | CCCCCCC[C@H](O)CC(=O)N[C@H](CC(C)C)C(=O)N[C@H](CCC(=O)O)C(=O)N[C@H]1C(=O)N[C@H](CC(C)C)C(=O)N[C@H](CC(C)C)C(=O)N[C@H](CO)C(=O)N[C@@H](CC(C)C)C(=O)N[C@H](CCC(N)=O)C(=O)N[C@@H](CC(C)C)C(=O)N[C@@H]([C@@H](C)CC)C(=O)N[C@@H](CCC(=O)O)C(=O)O[C@@H]1C | > 128 | 
4 | CCCCC[C@H](O)CC(=O)N[C@H](CC(C)C)C(=O)N[C@H](CCC(=O)O)C(=O)N[C@H]1C(=O)N[C@H](CC(C)C)C(=O)N[C@H](CC(C)C)C(=O)N[C@H](CO)C(=O)N[C@@H](CC(C)C)C(=O)N[C@H](CCC(N)=O)C(=O)N[C@@H](CC(C)C)C(=O)N[C@@H](CC(C)C)C(=O)N[C@@H](CCC(=O)O)C(=O)O[C@@H]1C | > 128 | 
5 | CCCCCCCCC[C@H](O)CC(=O)N[C@H](CC(C)C)C(=O)N[C@H](CC(=O)O)C(=O)N[C@H]1C(=O)N[C@H](CC(C)C)C(=O)N[C@H](CC(C)C)C(=O)N[C@H](CO)C(=O)N[C@@H](CC(C)C)C(=O)N[C@H](CCC(N)=O)C(=O)N[C@@H](CC(C)C)C(=O)N[C@@H]([C@@H](C)CC)C(=O)N[C@@H](CCC(=O)O)C(=O)O[C@@H]1C | 4 (≈ 2.78 µM) | 
6 | CCCCC[C@H](O)CC(=O)N[C@H](CC(C)C)C(=O)N[C@H](CC(=O)O)C(=O)N[C@H]1C(=O)N[C@H](CC(C)C)C(=O)N[C@H](CC(C)C)C(=O)N[C@H](CO)C(=O)N[C@@H](CC(C)C)C(=O)N[C@H](CCC(N)=O)C(=O)N[C@@H](CC(C)C)C(=O)N[C@@H]([C@@H](C)CC)C(=O)N[C@@H](CCC(=O)O)C(=O)O[C@@H]1C |  | inactive
7 | CCCCCCC[C@H](O)CC(=O)N[C@H](CC(C)C)C(=O)N[C@H](CC(=O)O)C(=O)N[C@H]1C(=O)N[C@H](CC(C)C)C(=O)N[C@H](CC(C)C)C(=O)N[C@H](CO)C(=O)N[C@@H](CC(C)C)C(=O)N[C@H](CCC(N)=O)C(=O)N[C@@H](CC(C)C)C(=O)N[C@@H](C(C)C)C(=O)N[C@@H](CCC(=O)O)C(=O)O[C@@H]1C | > 128 | 

Reference: ChEMBL document CHEMBL4665763, “Molecular Networking-Guided Discovery and Characterization of Stechlisins, a Group of Cyclic Lipopeptides from a Pseudomonas sp” (2020)
